Measured values taken from publication PMC10837422, “Early onset diagnosis in Alzheimer’s disease patients via amyloid-β oligomers-sensing probe in cerebrospinal fluid” (Nature Communications, 2024).

How the values were obtained:
[1] = target: T1, Amyloid-β 1–42 (Aβ1–42) oligomers (Homo sapiens, UniProt P05067); assay: fluorescence saturation titration; hexamer fragment mapping assay; type: binding
T1 construct: gene APP; full-length Aβ1–42 synthetic peptide, oligomers

[2] = target: T2, Amyloid-β 1–42 (Aβ1–42) fibrils (Homo sapiens, UniProt P05067); assay: ThT fluorescence turn-on during Aβ[…] self-assembly (reference dye); type: binding
T2 construct: gene APP
T2 sequence (P05067 672-713): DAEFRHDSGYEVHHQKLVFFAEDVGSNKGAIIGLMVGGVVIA

T1 sequence (P05067 672-713): as above

Row | Structure (SMILES) | Kd [1] | ThT fluorescence turn-on during Aβ1-42 self-assembly (reference dye) [2]
1 | CC(C)CC1=[O+][B-](F)(F)OC(/C=C/c2ccc3nc(N(C)C)ccc3c2)=C1 [Q-OB] | 303 ± 94.7 nM | 
2 | Cc1ccc2c(c1)sc(-c1ccc(N(C)C)cc1)[n+]2C [ThT, thioflavin T] |  | matured Aβ aggregates formation, since ThT specifically detects cross-β-sheet via hydrophobic binding
